ChEMBL document CHEMBL3763133, “4-Arylbenzenesulfonamides as Human Carbonic Anhydrase Inhibitors (hCAIs): Synthesis by Pd Nanocatalyst-Mediated Suzuki-Miyaura Reaction, Enzyme Inhibition, and X-ray Crystallographic Studies” (J Med Chem, 2016)

How the values were obtained:
Carbonic anhydrase 1 [1] = biological target: T1, Carbonic anhydrase 1 (Homo sapiens, UniProt P00915); experiment: Inhibition of human carbonic anhydrase 1 incubated for 15 mins prior to testing by CO2 hydration-based stopped flow assay
Target sequence in this assay (P00915 whole entry): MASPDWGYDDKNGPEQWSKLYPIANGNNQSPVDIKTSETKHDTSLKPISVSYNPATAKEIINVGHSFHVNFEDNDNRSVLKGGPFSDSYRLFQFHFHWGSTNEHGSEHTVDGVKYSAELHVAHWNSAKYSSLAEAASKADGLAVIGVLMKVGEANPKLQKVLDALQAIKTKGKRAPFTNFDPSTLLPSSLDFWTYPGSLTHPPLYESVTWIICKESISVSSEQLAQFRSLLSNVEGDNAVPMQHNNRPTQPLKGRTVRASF

Carbonic anhydrase 2 = Carbonic anhydrase 2 (Homo sapiens, UniProt P00918); experiment: Inhibition of human carbonic anhydrase 2 incubated for 15 mins prior to testing by CO2 hydration-based stopped flow assay
Carbonic anhydrase 12 = Carbonic anhydrase 12 (Homo sapiens, UniProt O43570); experiment: Inhibition of human carbonic anhydrase 12 incubated for 15 mins prior to testing by CO2 hydration-based stopped flow assay
Sequence of Carbonic anhydrase 12 (O43570 whole entry): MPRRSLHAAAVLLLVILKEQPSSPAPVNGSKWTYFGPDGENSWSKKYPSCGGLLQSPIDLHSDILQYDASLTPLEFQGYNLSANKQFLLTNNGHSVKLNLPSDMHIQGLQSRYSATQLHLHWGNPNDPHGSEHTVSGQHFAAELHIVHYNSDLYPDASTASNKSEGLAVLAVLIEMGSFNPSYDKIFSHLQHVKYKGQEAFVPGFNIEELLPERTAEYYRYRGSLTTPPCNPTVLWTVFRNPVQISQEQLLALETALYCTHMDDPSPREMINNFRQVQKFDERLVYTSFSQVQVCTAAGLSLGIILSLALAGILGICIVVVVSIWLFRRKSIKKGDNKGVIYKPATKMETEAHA

Carbonic anhydrase 9 [2] = biological target: T2, Carbonic anhydrase 9 (Homo sapiens, UniProt Q16790); experiment: Inhibition of human carbonic anhydrase 9 incubated for 15 mins prior to testing by CO2 hydration-based stopped flow assay
Carbonic anhydrase 1 [3] = biological target: T1, Carbonic anhydrase 1; experiment: Potency index, ratio of Ki for acetazolamide to Ki for test compound for inhibition of human carbonic anhydrase 1
Target sequence in this assay (P00915 2-261 limits assumed): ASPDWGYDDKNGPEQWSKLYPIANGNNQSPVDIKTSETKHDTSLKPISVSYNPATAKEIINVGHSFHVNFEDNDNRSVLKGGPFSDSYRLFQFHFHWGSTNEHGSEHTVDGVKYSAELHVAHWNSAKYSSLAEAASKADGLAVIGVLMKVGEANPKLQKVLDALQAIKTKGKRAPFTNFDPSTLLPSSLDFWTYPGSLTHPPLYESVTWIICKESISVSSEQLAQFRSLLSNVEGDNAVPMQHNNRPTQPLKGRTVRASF

Carbonic anhydrase 9 [4] = biological target: T2, Carbonic anhydrase 9; experiment: Potency index, ratio of Ki for acetazolamide to Ki for test compound for inhibition of human carbonic anhydrase 9

| SMILES | Ki (Carbonic anhydrase 1 [1]) | Ki (Carbonic anhydrase 2) | Ki (Carbonic anhydrase 12) | Ki (Carbonic anhydrase 9 [2]) | Ratio Ki (Carbonic anhydrase 1 [3]) | Ratio Ki (Carbonic anhydrase 9 [4]) |
| --- | --- | --- | --- | --- | --- | --- |
| NS(=O)(=O)c1ccc(-c2cccnc2)cc1 | 2400 nM | 16.6 nM | 20.3 nM | 78.1 nM | – | – |
| NS(=O)(=O)c1ccc(-c2cccc(-c3ccc(S(N)(=O)=O)cc3)c2)cc1 | > 10000 nM | 397 nM | 55.6 nM | 276 nM | – | – |
| Nc1ccc(-c2ccc(S(N)(=O)=O)cc2)cc1 | 3700 nM | 12.3 nM | 36.5 nM | – | – | – |
| NS(=O)(=O)c1ccc(-c2ccc3c(c2)OCO3)cc1 | > 10000 nM | 18 nM | 5.2 nM | 258 nM | – | – |
| NS(=O)(=O)c1ccc(-c2ccc(-c3ccc(S(N)(=O)=O)cc3)cc2)cc1 | > 10000 nM | 324 nM | 4.9 nM | 240 nM | – | – |
| Cc1ccccc1-c1ccc(S(N)(=O)=O)cc1 | 3500 nM | 1.2 nM | 47 nM | – | – | – |
| NS(=O)(=O)c1ccc(-c2ccc(Cn3cccn3)cc2)cc1 | 6970 nM | 11.1 nM | 38.3 nM | 216 nM | – | – |
| COC(=O)c1cccc(-c2ccc(S(N)(=O)=O)cc2)c1 | 6960 nM | 14.2 nM | 19.5 nM | 159 nM | – | – |
| COc1ccc2[nH]c(-c3ccc(S(N)(=O)=O)cc3)cc2c1 | 2640 nM | 764 nM | 415 nM | 156 nM | – | – |
| NS(=O)(=O)c1ccc(-c2cccc(C=O)c2)cc1 | 1180 nM | 2.1 nM | 0.58 nM | – | – | – |
| N#Cc1ccc(-c2ccc(S(N)(=O)=O)cc2)cc1 | 1340 nM | 1.2 nM | 14.2 nM | 228 nM | – | – |
| NS(=O)(=O)c1ccc(-c2ccc3ccccc3c2)cc1 | 1000 nM | 0.69 nM | > 10000 nM | 0.22 nM | – | 100 |
| NS(=O)(=O)c1ccc(-c2cc3ccccc3n2S(=O)(=O)c2ccccc2)cc1 | > 10000 nM | 11.7 nM | 33.9 nM | 100 nM | – | – |
| NS(=O)(=O)c1ccc(-c2ccc(-c3ccc(Br)cc3)cc2)cc1 | > 10000 nM | 764 nM | 54.2 nM | 224 nM | – | – |
| Nc1cccc(-c2ccc(S(N)(=O)=O)cc2)c1 | 2340 nM | 9.3 nM | 4.3 nM | 126 nM | – | – |
| NS(=O)(=O)c1ccc(-c2cc3ccccc3[nH]2)cc1 | 656 nM | 10.2 nM | 5.6 nM | 124 nM | – | – |
| COc1cc(-c2ccc(S(N)(=O)=O)cc2)cc(OC)c1OC | 9520 nM | 19.1 nM | 32.2 nM | 259 nM | – | – |

Stronger by Ki (Carbonic anhydrase 1 [1]), values ahead:

| Ki (Carbonic anhydrase 1 [1]) | Ki (Carbonic anhydrase 2) | Ki (Carbonic anhydrase 12) | Ki (Carbonic anhydrase 9 [2]) | Ratio Ki (Carbonic anhydrase 1 [3]) | Ratio Ki (Carbonic anhydrase 9 [4]) | SMILES |
| --- | --- | --- | --- | --- | --- | --- |
| 35.2 nM | 2.5 nM | 760 nM | 0.18 nM | 6 | 100 | NS(=O)(=O)c1ccc(-c2cnc3ccccc3c2)cc1 |
| 24.5 nM | 0.95 nM | 65 nM | 0.17 nM | 10 | 100 | NS(=O)(=O)c1ccc(-c2ccc3[nH]ccc3c2)cc1 |
| 146 nM | 0.98 nM | 0.58 nM | – | – | – | CC(C)c1ccccc1-c1ccc(S(N)(=O)=O)cc1 |
| 370 nM | 0.84 nM | > 10000 nM | 0.21 nM | – | 100 | NS(=O)(=O)c1ccc(-c2cc3ccccc3s2)cc1 |
| 185 nM | 0.7 nM | > 10000 nM | 0.37 nM | – | 100 | NS(=O)(=O)c1ccc(-c2cc3ccccc3o2)cc1 |
| 41.5 nM | 0.79 nM | 92.7 nM | 0.21 nM | 6 | 100 | NS(=O)(=O)c1ccc(-c2ccccc2)cc1 |
| 83.6 nM | 0.68 nM | 96.7 nM | 0.24 nM | – | 100 | NS(=O)(=O)c1ccc(-c2cn(S(=O)(=O)c3ccccc3)c3ccccc23)cc1 |
